Source: PubChem BioAssay (NCI)
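A five-concentration, 48-hour dose response in 96-well plates underlies each endpoint, interpolated linearly between surrounding concentrations. GI50 marks 50% less growth. At the TGI there is no net growth.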

Tests used:
Experiment in all cases: inhibition of tumour cell growth, NCI panel, 48 h; in the data active means GI50 below about 0.43 µM; inactive means the rest
786-0 renal = tested on: 786-0 renal
A498 renal = tested on: A498 renal
A549 NSCLC = tested on: A549 NSCLC
ACHN renal = tested on: ACHN renal
BT-549 breast = tested on: BT-549 breast
CAKI-1 renal = tested on: CAKI-1 renal
CCRF-CEM leukemia = tested on: CCRF-CEM leukemia
COLO 205 colon = tested on: COLO 205 colon
DU-145 prostate = tested on: DU-145 prostate
EKVX NSCLC = tested on: EKVX NSCLC
HCC-2998 colon = tested on: HCC-2998 colon
HCT-116 colon = tested on: HCT-116 colon
HCT-15 colon = tested on: HCT-15 colon
HL-60(TB) leukemia = tested on: HL-60(TB) leukemia
HOP-62 NSCLC = tested on: HOP-62 NSCLC
HOP-92 NSCLC = tested on: HOP-92 NSCLC
HS 578T breast = tested on: HS 578T breast
HT29 colon = tested on: HT29 colon
IGROV1 ovarian = tested on: IGROV1 ovarian
K-562 leukemia = tested on: K-562 leukemia
KM12 colon = tested on: KM12 colon
LOX IMVI melanoma = tested on: LOX IMVI melanoma
M14 melanoma = tested on: M14 melanoma
MALME-3M melanoma = tested on: MALME-3M melanoma
MCF7 breast = tested on: MCF7 breast
MDA-MB-231 breast = tested on: MDA-MB-231 breast
MDA-MB-435 = tested on: MDA-MB-435
MOLT-4 leukemia = tested on: MOLT-4 leukemia
NCI-H226 lung = tested on: NCI-H226 lung

COc1cc(/C=C/C(=O)c2cccc(-n3cc(-c4ccc(Cl)cc4)[nH]c3=O)c2)cc(OC)c1OC
18.6 µM: TGI (KM12 colon)
48.6 µM: TGI (MDA-MB-231 breast)
27 µM: TGI (DU-145 prostate)
18.3 µM: TGI (M14 melanoma)
3.2 µM: TGI (LOX IMVI melanoma)
5.75 µM: TGI (MCF7 breast)
7.36 µM: TGI (HCC-2998 colon)
2.68 µM: TGI (HCT-116 colon)
20.2 µM: TGI (COLO 205 colon)
> 100 µM: TGI (A498 renal) | TGI (A549 NSCLC) | TGI (CCRF-CEM leukemia) | TGI (EKVX NSCLC) | TGI (HL-60(TB) leukemia) | TGI (HOP-92 NSCLC) | TGI (HS 578T breast) | TGI (K-562 leukemia) | TGI (MALME-3M melanoma) | TGI (MDA-MB-435) | TGI (MOLT-4 leukemia) | TGI (NCI-H226 lung)
19 µM: TGI (IGROV1 ovarian)
57.3 µM: TGI (HOP-62 NSCLC)
95.5 µM: TGI (CAKI-1 renal)
10.3 µM: TGI (HCT-15 colon)
inactive: GI50 (786-0 renal) 2.14 µM | GI50 (A498 renal) 30.2 µM | GI50 (A549 NSCLC) 85.2 µM | GI50 (ACHN renal) 7.17 µM | GI50 (BT-549 breast) 12.3 µM | GI50 (CAKI-1 renal) 15.6 µM | GI50 (CCRF-CEM leukemia) 5.43 µM | GI50 (COLO 205 colon) 7.38 µM | GI50 (DU-145 prostate) 4.53 µM | GI50 (EKVX NSCLC) 23.9 µM | GI50 (HCC-2998 colon) 2.46 µM | GI50 (HCT-116 colon) 1.39 µM | GI50 (HCT-15 colon) 3.85 µM | GI50 (HL-60(TB) leukemia) 15.7 µM | GI50 (HOP-62 NSCLC) 23.6 µM | GI50 (HOP-92 NSCLC) > 100 µM | GI50 (HS 578T breast) 5.96 µM | GI50 (HT29 colon) 2 µM | GI50 (IGROV1 ovarian) 4.68 µM | GI50 (K-562 leukemia) 3.69 µM | GI50 (KM12 colon) 5.45 µM | GI50 (LOX IMVI melanoma) 1.72 µM | GI50 (M14 melanoma) 4.36 µM | GI50 (MALME-3M melanoma) 18.1 µM | GI50 (MCF7 breast) 1.74 µM | GI50 (MDA-MB-231 breast) 13.8 µM | GI50 (MDA-MB-435) 3.63 µM | GI50 (MOLT-4 leukemia) 5.24 µM | GI50 (NCI-H226 lung) > 100 µM
19.5 µM: TGI (ACHN renal)
79.9 µM: TGI (BT-549 breast)
5.39 µM: TGI (786-0 renal)
3.71 µM: TGI (HT29 colon)
